Here are results for two molecules from patent US4602945A, “Acaricidal ester of tricyclohexyl-tin hydroxide” (Rhone-Poulenc Agrochimie, priority 1983, dated 1986).

For data set [1], the system named is Plutella xylistella larvae. The data set can be described thus: Insecticidal test, leaf discs of turnip plants. The format is in vivo. The settings on record: 100 g/hl; 48 hours; 26° C; cyhexatin in the form of a wettable powder. The procedure:
Discs of leaf from turnip plants are placed in gelose in Petri dishes. In each dish, 10 Plutella xylistella larvae are placed on each disc and the dish is covered with a ventilated lid. The product to be tested is dissolved in a water/acetone 50/50 mixture and the discs are treated by spraying with this solution by using a Potter tower at a dose equivalent to 675 liters/ha. The discs are kept at 26° C. After 48 hours after the treatment, the live and dead larvae are counted and the mortality percentage is calculated.

Data set [2] in a line: Solubility in organic solvents. The format is physicochemical. To be noted: cyclohexanone (546 g), 316 g of 94% pure substance, 50° C., with stirring. The procedure: A reactor is charged, with cyclohexanone (546 g) and 94% pure tricyclohexyl-tin hydroxide (316 g) at 50° C., with stirring. […] Benzoic acid (95 g) is then added and the temperature is kept at 50° C.
For data set [3] the following is noted: background statement; cited from earlier work.

`[OH][Sn]([CH]1CCCCC1)([CH]1CCCCC1)[CH]1CCCCC1` [cyhexatin, Tricyclohexyl-tin hydroxide] had a mortality percentage in data set [1] below 10%. In addition, the dissolution in cyclohexanone entry in data set [2] is recorded as “does not dissolve”. For the same molecule, the “solubility in most of the usual solvents in agrochemistry” value in data set [3] was “insolubility”.
Turning to tricyclohexyl-tin benzoate, the mortality percentage result in data set [1] is listed as “at least 95%”.
